# Experimental data reported in US20250270213A1, “PI3Ka INHIBITORS” (Synnovation Therapeutics, Inc., priority 2022, published 2025).
# Test system: T47D (PIK3CA H1047R) cells
# Assay: pS473 AKT assay with 2.5% FBS, T47D cells
# Assay type: cell-based
# Conditions: Homo sapiens, pSer473 AKT, DMEM with 2.5% FBS, 2 h treatment, read-out: T47D_IC50
# Procedure: Example B. pS473 AKT Assay Protocol with 2.5% FBS
# T47D (PIK3CA H1047R) cells were cultured using 10-cm petri dishes with recommended medium plus 10% fetal bovine serum. One day before the assay, cells were seeded in 96-well plates. After overnight incubation, the medium was changed to DMEM with 2.5% fetal bovine serum (FBS) and the cells were treated with different concentrations of the compounds for 2 h. Cells were then fixed using 4% paraformaldehyde at room temperature for 20 min. Aspirate 4% paraformaldehyde, and wash cells using 1× regular phosphate buffered saline 3 times, 5 min each. Aspirate any residual phosphate buffered saline and block cells using 10% goat serum containing 1% bovine serum albumin and 0.3% Triton X-100 at room temperature for 1 h. Without any additional washing, primary antibodies (rabbit anti-pSer473 AKT) were diluted using blocking buffer and added at a final volume of 50 microliter per well. Keep assay plates with primary antibodies overnight at 4° C. Wash cells using 1× regular phosphate buffered saline 3 times, 5 min each. After the final wash, incubate cells with horseradish peroxidase-conjugated secondary antibodies (goat Anti-rabbit IgG) diluted using the same blocking buffer at room temperature for 1 h. Wash cells thoroughly using 1× regular phosphate buffered saline 3 times, 5 min each. Aspirate any residual phosphate buffered saline. Add Super-Signal ELISA Pico Chemiluminescent Substrate at a final volume of 100 microliter per well. Read plates on i3x Multi-Mode Microplate Reader and calculate IC50 values using GraphPad Prism software.
row,IC50 [nM],SMILES
1,< 1000,"CCc1nn2c3c4c(cc(C)cc4c(=O)n(C)c13)C(Nc1ccc(C)nc1-c1ccncc1)C2 (centres unmarked) [Compound 40, 2-Ethyl-3,6-dimethyl-8-((6-methyl-[2,4′-bipyridin]-3-yl)amino)-8,9-dihydrobenzo[de]pyrazolo[4,5,1-ij][1,7]naphthyridin-4(3H)-one]"
2,< 1000,"CCn1ncc2c3c(C(C)Nc4ccc(Cl)nc4-c4ccc(=O)n(C)c4)cc(C)cc3c(=O)n(C)c21 (centres unmarked) [Compound 41, 9-(1-((6-chloro-1′-methyl-6′-oxo-1′,6′-dihydro-[2,3′-bipyridin]-3-yl)amino)ethyl)-3-ethyl-4,7-dimethyl-3,4-dihydro-5H-pyrazolo[3,4-c]isoquinolin-5-one]"
3,< 1000,"CCn1ncc2c3c(C(C)Nc4ccc(Cl)nc4-c4ccc(C(=O)NC)c(F)c4)cc(C)cc3c(=O)n(C)c21 (centres unmarked) [Compound 42, 4-(6-chloro-3-((1-(3-ethyl-4,7-dimethyl-5-oxo-4,5-dihydro-3H-pyrazolo[3,4-c]isoquinolin-9-yl)ethyl)amino)pyridin-2-yl)-2-fluoro-N-methylbenzamide]"
4,< 1000,"CCn1ncc2c3c(C(C)Nc4ccc(Cl)nc4-c4ccncn4)cc(C)cc3c(=O)n(C)c21 (centres unmarked) [Compound 43, 9-(1-((6-chloro-2-(pyrimidin-4-yl)pyridin-3-yl)amino)ethyl)-3-ethyl-4,7-dimethyl-3,4-dihydro-5H-pyrazolo[3,4-c]isoquinolin-5-one]"
5,< 1000,"CCn1ncc2c3c(C(C)Nc4ccc(Cl)nc4-c4cncnc4)cc(C)cc3c(=O)n(C)c21 (centres unmarked) [Compound 44, 9-(1-((6-chloro-2-(pyrimidin-5-yl)pyridin-3-yl)amino)ethyl)-3-ethyl-4,7-dimethyl-3,4-dihydro-5H-pyrazolo[3,4-c]isoquinolin-5-one]"
6,< 1000,"CCn1ncc2c3c(C(C)Nc4ccc(Cl)nc4-c4ccncc4F)cc(C)cc3c(=O)n(C)c21 (centres unmarked) [Compound 45, 9-(1-((6-chloro-3′-fluoro-[2,4′-bipyridin]-3-yl)amino)ethyl)-3-ethyl-4,7-dimethyl-3,4-dihydro-5H-pyrazolo[3,4-c]isoquinolin-5-one]"
7,< 1000,"CCn1ncc2c3c(C(C)Nc4ccc(Cl)nc4-c4ccc(C(=O)N(C)C)cc4)cc(C)cc3c(=O)n(C)c21 (centres unmarked) [Compound 46, 4-(6-chloro-3-((1-(3-ethyl-4,7-dimethyl-5-oxo-4,5-dihydro-3H-pyrazolo[3,4-c]isoquinolin-9-yl)ethyl)amino)pyridin-2-yl)-N,N-dimethylbenzamide]"
8,< 1000,"CCn1ncc2c3c(C(C)Nc4ccc(Cl)nc4-c4ccc(C(=O)O)cc4)cc(C)cc3c(=O)n(C)c21 (centres unmarked) [Compound 47, 4-(6-chloro-3-((1-(3-ethyl-4,7-dimethyl-5-oxo-4,5-dihydro-3H-pyrazolo[3,4-c]isoquinolin-9-yl)ethyl)amino)pyridin-2-yl) benzoic acid]"
9,< 1000,"CCn1ncc2c3c(C(C)Nc4ccc(Cl)nc4-c4ccnn4C)cc(C)cc3c(=O)n(C)c21 (centres unmarked) [Compound 48, 9-(1-((6-chloro-2-(1-methyl-1H-pyrazol-5-yl)pyridin-3-yl)amino)ethyl)-3-ethyl-4,7-dimethyl-3,4-dihydro-5H-pyrazolo[3,4-c]isoquinolin-5-one]"
10,< 1000,"CCn1ncc2c3c(C(C)Nc4ccc(Cl)nc4-c4cnn(C)c4C)cc(C)cc3c(=O)n(C)c21 (centres unmarked) [Compound 49, 9-(1-((6-chloro-2-(1,5-dimethyl-1H-pyrazol-4-yl)pyridin-3-yl)amino)ethyl)-3-ethyl-4,7-dimethyl-3,4-dihydro-5H-pyrazolo[3,4-c]isoquinolin-5-one]"
11,< 1000,"CCn1ncc2c3c(C(C)Nc4ccc(Cl)nc4-c4cnn(C)c4)cc(C)cc3c(=O)n(C)c21 (centres unmarked) [Compound 50, 9-(1-((6-chloro-2-(1-methyl-1H-pyrazol-4-yl)pyridin-3-yl)amino)ethyl)-3-ethyl-4,7-dimethyl-3,4-dihydro-5H-pyrazolo[3,4-c]isoquinolin-5-one]"
12,< 1000,"CCn1ncc2c3c(C(C)Nc4ccc(Cl)nc4-c4cn[nH]c4)cc(C)cc3c(=O)n(C)c21 (centres unmarked) [Compound 51, 9-(1-((6-chloro-2-(1H-pyrazol-4-yl)pyridin-3-yl)amino)ethyl)-3-ethyl-4,7-dimethyl-3,4-dihydro-5H-pyrazolo[3,4-c]isoquinolin-5-one]"
13,< 1000,"CCn1ncc2c3c(C(C)Nc4ccc(C)nc4-c4cnn(C)c4)cc(C)cc3c(=O)n(C)c21 (centres unmarked) [Compound 52, 3-Ethyl-4,7-dimethyl-9-(1-((6-methyl-2-(1-methyl-1H-pyrazol-4-yl)pyridin-3-yl)amino)ethyl)-3,4-dihydro-5H-pyrazolo[3,4-c]isoquinolin-5-one]"
14,< 1000,"CCn1ncc2c3c(C(C)Nc4ccc(C)nc4-c4cn[nH]c4)cc(C)cc3c(=O)n(C)c21 (centres unmarked) [Compound 53, 3-ethyl-4,7-dimethyl-9-(1-((6-methyl-2-(1H-pyrazol-4-yl)pyridin-3-yl)amino)ethyl)-3,4-dihydro-5H-pyrazolo[3,4-c]isoquinolin-5-one]"
15,< 1000,"CCn1ncc2c3c(C(C)Nc4ccc(C)nc4-c4ccnn4C)cc(C)cc3c(=O)n(C)c21 (centres unmarked) [Compound 54, 3-ethyl-4,7-dimethyl-9-(1-((6-methyl-2-(1-methyl-1H-pyrazol-5-yl)pyridin-3-yl)amino)ethyl)-3,4-dihydro-5H-pyrazolo[3,4-c]isoquinolin-5-one]"
16,< 1000,"CCn1ncc2c3c(C(C)Nc4ccc(C)nc4-c4ccc(C(=O)NC)c(F)c4)cc(C)cc3c(=O)n(C)c21 (centres unmarked) [Compound 55, 4-(3-((1-(3-ethyl-4,7-dimethyl-5-oxo-4,5-dihydro-3H-pyrazolo[3,4-c]isoquinolin-9-yl)ethyl)amino)-6-methylpyridin-2-yl)-2-fluoro-N-methylbenzamide]"
17,< 1000,"CCn1ncc2c3c(C(C)Nc4ccccc4-c4cnn(CCO)c4)cc(C)cc3c(=O)n(C)c21 (centres unmarked) [Compound 56, 3-ethyl-9-(1-((2-(1-(2-hydroxyethyl)-1H-pyrazol-4-yl)phenyl)amino)ethyl)-4,7-dimethyl-3,4-dihydro-5H-pyrazolo[3,4-c]isoquinolin-5-one]"
18,< 1000,"CCn1ncc2c3c(C(C)Nc4ccccc4N4CCN(C(C)=O)CC4)cc(C)cc3c(=O)n(C)c21 (centres unmarked) [Compound 57, 9-(1-((2-(4-Acetylpiperazin-1-yl)phenyl)amino)ethyl)-3-ethyl-4,7-dimethyl-3,4-dihydro-5H-pyrazolo[3,4-c]isoquinolin-5-one]"
19,< 1000,"CCn1ncc2c3c(C(C)Nc4ccccc4N4CCn5cnnc5C4)cc(C)cc3c(=O)n(C)c21 (centres unmarked) [Compound 58, 9-(1-((2-(5,6-Dihydro-[1,2,4]triazolo[4,3-a]pyrazin-7(8H)-yl)phenyl)amino)ethyl)-3-ethyl-4,7-dimethyl-3,4-dihydro-5H-pyrazolo[3,4-c]isoquinolin-5-one]"
20,< 1000,"CCn1ncc2c3c(C(C)Nc4ccc(Cl)nc4-c4noc(=O)[nH]4)cc(C)cc3c(=O)n(C)c21 (centres unmarked) [Compound 59, 3-(6-Chloro-3-((1-(3-ethyl-4,7-dimethyl-5-oxo-4,5-dihydro-3H-pyrazolo[3,4-c]isoquinolin-9-yl)ethyl)amino)pyridin-2-yl)-1,2,4-oxadiazol-5(4H)-one]"
21,< 1000,"CCn1ncc2c3c(C(C)Nc4ccc(Cl)nc4-c4noc(=O)[nH]4)cc(C)cc3c(=O)n(CC(F)F)c21 (centres unmarked) [Compound 60, 3-(6-Chloro-3-((1-(4-(2,2-difluoroethyl)-3-ethyl-7-methyl-5-oxo-4,5-dihydro-3H-pyrazolo[3,4-c]isoquinolin-9-yl)ethyl)amino)pyridin-2-yl)-1,2,4-oxadiazol-5(4H)-one]"
22,< 1000,"Cc1cc(C(C)Nc2ccc(Cl)nc2-c2noc(=O)[nH]2)c2c(c1)c(=O)n(C)c1c2cnn1C1CCCC1 (centres unmarked) [Compound 61, 3-(6-Chloro-3-((1-(3-cyclopentyl-4,7-dimethyl-5-oxo-4,5-dihydro-3H-pyrazolo[3,4-c]isoquinolin-9-yl)ethyl)amino)pyridin-2-yl)-1,2,4-oxadiazol-5(4H)-one]"
23,< 1000,"Cc1cc(C(C)Nc2ccc(Cl)nc2-c2noc(=O)[nH]2)c2c(c1)c(=O)n(C)c1c2cnn1C(C)C (centres unmarked) [Compound 62, 3-(6-Chloro-3-((1-(3-isopropyl-4,7-dimethyl-5-oxo-4,5-dihydro-3H-pyrazolo[3,4-c]isoquinolin-9-yl)ethyl)amino)pyridin-2-yl)-1,2,4-oxadiazol-5(4H)-one]"
24,< 1000,"CCn1ncc2c3c(C(C)Nc4ccc(Cl)nc4-c4noc(=O)[nH]4)cc(Cl)cc3c(=O)n(C)c21 (centres unmarked) [Compound 63, 3-(6-Chloro-3-((1-(7-chloro-3-ethyl-4-methyl-5-oxo-4,5-dihydro-3H-pyrazolo[3,4-c]isoquinolin-9-yl)ethyl)amino)pyridin-2-yl)-1,2,4-oxadiazol-5(4H)-one]"
25,< 1000,"CC(Nc1ccc(Cl)nc1-c1noc(=O)[nH]1)c1cc(Cl)cc2c(=O)n(C)c3c(cnn3CC3CC3)c12 (centres unmarked) [Compound 64, 3-(6-Chloro-3-((1-(7-chloro-3-(cyclopropylmethyl)-4-methyl-5-oxo-4,5-dihydro-3H-pyrazolo[3,4-c]isoquinolin-9-yl)ethyl)amino)pyridin-2-yl)-1,2,4-oxadiazol-5(4H)-one]"
26,< 1000,"CCCn1ncc2c3c(C(C)Nc4ccc(Cl)nc4-c4noc(=O)[nH]4)cc(C)cc3c(=O)n(C)c21 (centres unmarked) [Compound 65, 3-(6-Chloro-3-((1-(4,7-dimethyl-5-oxo-3-propyl-4,5-dihydro-3H-pyrazolo[3,4-c]isoquinolin-9-yl)ethyl)amino)pyridin-2-yl)-1,2,4-oxadiazol-5(4H)-one]"
